# Reference: US9241961B2, “Medicinal product for treating gastrointestinal ulcers” (BIOCEDEX, priority 2009, dated 2016)
# Tests used:
# [1] = development of body weight of the rats during 6-day oral treatment; format: in vivo; settings: Sb 0.3-1.0-3.0 g/kg/d and/or ibuprofen 100 mg/kg/d, 6 days, rat
# Protocol: Male Wistar rats obtained from Janvier weighing between 200 and 220 grams are used after acclimatization for at least 7 days in the animal house (temp.=22 ±2° C.; humidity: 50±20%; food SAFE “A04”; nyctohemeral cycle: 12 hours of light and 12 hours of darkness).
# On D1, the rat receives the test product or the solvent by the oral route. Then, 1 hour later, the rat receives ibuprofen at 100 mg/kg by the oral route, or the solvent for the control group. The rats receive these treatments for 6 consecutive days.
# [2] = system: gastric ibuprofen-induced ulcer; experiment: model of gastric ibuprofen-induced ulcer in the rat; format: in vivo; settings: ibuprofen alone 100 mg/kg/d oral for 6 days, male Wistar rat
# Protocol: The inventors determined the anti-ulcer effect of Saccharomyces boulardii in the model of gastric ibuprofen-induced ulcer in the rat according to the protocol of Abraham et al. (2005) Dig Dis Sci 50:1 632-1 640. Male Wistar rats obtained from Janvier weighing between 200 and 220 grams are used after acclimatization for at least 7 days in the animal house (temp.=22 ±2° C.; humidity: 50±20%; food SAFE “A04”; nyctohemeral cycle: 12 hours of light and 12 hours of darkness). On D1, the rat receives the test product or the solvent by the oral route. Then, 1 hour later, the rat receives ibuprofen at 100 mg/kg by the oral route, or the solvent for the control group. The rats receive these treatments for 6 consecutive days. The animals go without food for 14-16 hours before the last administration of ibuprofen, but have access to drink. They are placed individually in a metal cage, the floor of which is a grating, to prevent coprophagia. On D6 the rat is sacrificed. […] Macroscopic evaluation of the gastric lesions is carried out as follows: • the stomach is spread out on a cork support with pins; • the number of ulcers on each stomach is counted; • the ulcerated area (mm^2) of haemorrhagic lesions is measured with a grid of squares (×10) and a stereo-microscope (Leica Wild M8) by measuring the length (mm) and width (mm) of each ulceration. […]
compound,measurement,setting,value
CC(C)Cc1ccc(C(C)C(=O)O)cc1 (stereo not drawn) [ibuprofen],development of body weight relative to the untreated group,[1],do not alter the development of body weight
same,number of ulcers,"[2]; gastric mucosa, recorded on day 6",6.60±1.06 ulcers
same,total area of ulceration,[2]; measured on day 6,9.40±1.72 mm^2
